In ChEMBL document CHEMBL5143570, “Development of naringenin-O-carbamate derivatives as multi-target-directed liagnds for the treatment of Alzheimer's disease” (Bioorg Med Chem Lett, 2022):
Active and inactive are the calls of the source. The rule behind the calls is not given here.

Legend:
[1] = system: PC-12; assay: Neuroprotective activity against H2O2-induced cytotoxicity in rat PC-12 cells assessed as increase in cell viability at 5 uM by MTT assay relative to control; assay type: functional
[2] = Cytotoxicity against mouse HT-22 cells assessed as reduction in cell viability by MTT assay; assay type: toxicity, cell-based
[3] = molecular target: Butyrylcholinesterase (Rattus norvegicus, UniProt Q9JKC1); assay: Inhibition of rat serum Butyrylcholine esterase using butyrylthiocholine as substrate incubated for 15 mins by DTNB reagent based Ellman's method; assay type: cell-free
[4] = Effect on tau protein expression in pRK5-GFP-Tau plasmid transfected mouse HT-22 cells assessed as reduction in fluorescence intensity at 5 uM incubated for 24 hrs by fluorescence microscopic analysis (reference value: 36.8); assay type: functional
[5] = Inhibition of LPS-induced TNFalpha production in mouse BV-2 cells assessed as TNFalpha level at 5 uM by ELISA analysis relative to control; assay type: functional
[6] = system: HT-22; assay: Effect on APP protein expression in pEGFP-N1-APP plasmid transfected mouse HT-22 cells assessed as fluorescence intensity by measuring decrease in GFP level incubated for 24 hrs by western blot analysis; assay type: functional, cell-based; details: dose 5-20 µM, DDE = dose-dependent effect
[7] = system: L02; assay: Cytotoxicity against human L02 cells assessed as decrease in cell viability at 40 uM by MTT assay relative to control; assay type: toxicity, cell-based; details: l02, 40 µM
[8] = molecular target: Acetylcholinesterase (Homo sapiens, UniProt P22303); assay: Pseudo-irreversible inhibition of human AChE assessed as restoration of enzyme activity at 0.1 time of IC50 concentration incubated for 120 mins by dilution method relative to control; set-up: scale not given: the % may be the effect or the level left
[9] = Effect on APP protein expression in pEGFP-N1-APP plasmid transfected mouse HT-22 cells assessed as decrease in fluorescence intensity at 10 uM incubated for 24 hrs by fluorescence microscopic analysis (reference value: 30.7); assay type: functional
[10] = molecular target: Amyloid-beta precursor protein (Homo sapiens) (UniProt P05067); assay: Inhibition of amyloid beta (1 to 42) (unknown origin) self-induced fibril formation at 25 uM incubated for 24 hrs by transmission electron microscopic analysis
[11] = molecular target: Cholinesterase (Homo sapiens, UniProt P06276); assay: Inhibition of human serum BuChE using butyrylthiocholine as substrate incubated for 15 mins by DTNB reagent based Ellman's method; assay type: cell-free
[12] = Inhibition of LPS-induced TNFalpha production in mouse BV-2 cells assessed as TNFalpha level at 10 uM by ELISA analysis; assay type: functional
[13] = Inhibition of LPS-induced NO production in mouse BV-2 cells at 5 uM by Griess reaction method relative to control; assay type: functional
[14] = Effect on tau protein expression in pRK5-GFP-Tau P301L plasmid transfected mouse HT-22 cells assessed as reduction in fluorescence intensity at 20 uM by fluorescence microscopic analysis (reference value: 35.0); assay type: functional
[15] = organism: Homo sapiens; assay: Selectivity index, ratio of IC50 for inhibition of human serum BuChE to IC50 for inhibition of human erythrocyte AChE
[16] = system: BV-2; assay: Cytotoxicity against mouse BV-2 cells assessed as increase in cell viability at 5 to 10 uM by MTT assay; assay type: toxicity, cell-based; details: bv-2, 10 µM, dose 5-10 µM
[17] = molecular target: Amyloid-beta precursor protein (Homo sapiens) (UniProt P05067); assay: Disaggregation of Cu2+-induced amyloid beta (1 to 42) (unknown origin) aggregation at 25 uM by thioflavin-T fluorescence method relative to control
[18] = molecular target: Amyloid-beta precursor protein (Homo sapiens) (UniProt P05067); assay: Inhibition of Cu2+-induced amyloid beta (1 to 42) (unknown origin) aggregation at 25 uM by thioflavin-T fluorescence method relative to control
[19] = Metal chelating activity assessed as Cu2+-compound complex formation by measuring maximum absorption wavelength shift in the presence of CuCl2 by UV-visible spectrometric analysis
[20] = Effect on tau protein expression in pRK5-GFP-Tau P301L plasmid transfected mouse HT-22 cells assessed as reduction in fluorescence intensity at 5 uM by fluorescence microscopic analysis (reference value: 35.0); assay type: functional
[21] = Inhibition of LPS-induced TNFalpha production in mouse BV-2 cells assessed as TNFalpha level at 10 uM by ELISA analysis relative to control; assay type: functional
[22] = Effect on tau protein expression in pRK5-GFP-Tau plasmid transfected mouse HT-22 cells assessed as reduction in fluorescence intensity at 20 uM incubated for 24 hrs by fluorescence microscopic analysis (reference value: 36.8); assay type: functional
[23] = Inhibition of LPS-induced TNFalpha production in mouse BV-2 cells assessed as TNFalpha level at 5 uM by ELISA analysis; assay type: functional
[24] = system: PC-12; assay: Cytotoxicity against rat PC-12 cells assessed as reduction in cell viability measured upto 40 uM incubated for 72 hrs by MTT assay; assay type: toxicity, cell-based; details: pc-12, 72 h
[25] = system: HT-22; assay: Effect on tau protein expression in pRK5-GFP-Tau P301L plasmid transfected mouse HT-22 cells assessed as fluorescence intensity by measuring decrease in GFP level by western blot analysis; assay type: functional, cell-based; details: dose 5-20 µM, DDE = dose-dependent effect
[26] = organism: Rattus norvegicus; assay: Selectivity index, ratio of IC50 for inhibition of rat serum butyrylcholine esterase to IC50 for inhibition of rat cortex AChE
[27] = Metal chelating activity assessed as Al3+-compound complex formation by measuring maximum absorption wavelength shift in the presence of AlCl3 by UV-visible spectrometric analysis
[28] = Inhibition of LPS-induced NO production in mouse BV-2 cells at 10 uM by Griess reaction method relative to control; assay type: functional
[29] = system: L02; assay: Hepatoprotective activity against H2O2-induced cytotoxicity in human L02 cells assessed as increase in cell viability at 10 uM by MTT assay; assay type: functional
[30] = molecular target: T1, Acetylcholinesterase (Rattus norvegicus, UniProt P37136); assay: Inhibition of rat cortex AChE using acetylthiocholine as substrate incubated for 15 mins by DTNB reagent based Ellman's method; assay type: tissue-based
T1 sequence (P37136 whole entry): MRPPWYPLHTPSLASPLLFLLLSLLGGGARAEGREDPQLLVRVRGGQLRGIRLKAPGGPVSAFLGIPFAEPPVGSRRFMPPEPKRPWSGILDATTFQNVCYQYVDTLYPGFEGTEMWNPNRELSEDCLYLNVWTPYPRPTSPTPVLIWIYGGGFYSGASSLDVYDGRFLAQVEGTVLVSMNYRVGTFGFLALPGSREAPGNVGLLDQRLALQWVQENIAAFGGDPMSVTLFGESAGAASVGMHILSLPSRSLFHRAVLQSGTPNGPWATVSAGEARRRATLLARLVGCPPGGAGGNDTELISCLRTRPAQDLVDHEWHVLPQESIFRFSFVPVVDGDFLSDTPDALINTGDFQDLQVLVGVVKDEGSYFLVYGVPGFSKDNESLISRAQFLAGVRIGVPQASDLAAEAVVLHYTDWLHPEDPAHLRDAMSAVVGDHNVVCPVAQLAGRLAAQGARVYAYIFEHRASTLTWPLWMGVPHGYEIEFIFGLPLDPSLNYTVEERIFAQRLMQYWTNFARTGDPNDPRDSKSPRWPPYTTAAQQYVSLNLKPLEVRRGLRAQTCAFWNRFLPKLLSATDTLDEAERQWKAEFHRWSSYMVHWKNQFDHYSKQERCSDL

Sequence of Amyloid-beta precursor protein (Homo sapiens) (P05067 whole entry): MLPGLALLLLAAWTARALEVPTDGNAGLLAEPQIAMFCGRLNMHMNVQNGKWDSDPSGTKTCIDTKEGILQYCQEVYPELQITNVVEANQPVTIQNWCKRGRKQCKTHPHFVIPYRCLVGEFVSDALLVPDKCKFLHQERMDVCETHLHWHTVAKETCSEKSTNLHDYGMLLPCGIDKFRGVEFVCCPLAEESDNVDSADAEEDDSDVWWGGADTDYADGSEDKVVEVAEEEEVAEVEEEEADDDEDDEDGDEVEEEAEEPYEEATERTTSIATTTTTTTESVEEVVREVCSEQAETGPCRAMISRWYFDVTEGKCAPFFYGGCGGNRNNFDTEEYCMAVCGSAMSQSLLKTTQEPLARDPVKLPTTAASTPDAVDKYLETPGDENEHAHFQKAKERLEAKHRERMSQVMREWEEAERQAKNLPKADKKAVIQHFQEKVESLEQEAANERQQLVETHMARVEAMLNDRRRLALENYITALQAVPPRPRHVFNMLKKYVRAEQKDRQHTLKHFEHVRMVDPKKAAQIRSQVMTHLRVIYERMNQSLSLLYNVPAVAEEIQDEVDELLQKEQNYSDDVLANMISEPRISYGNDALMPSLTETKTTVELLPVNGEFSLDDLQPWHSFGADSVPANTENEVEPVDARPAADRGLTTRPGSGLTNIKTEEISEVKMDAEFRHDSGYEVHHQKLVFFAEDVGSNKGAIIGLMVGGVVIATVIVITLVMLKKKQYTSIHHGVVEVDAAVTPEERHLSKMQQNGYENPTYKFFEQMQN
Sequence of Acetylcholinesterase (Homo sapiens, UniProt P22303) (P22303 whole entry): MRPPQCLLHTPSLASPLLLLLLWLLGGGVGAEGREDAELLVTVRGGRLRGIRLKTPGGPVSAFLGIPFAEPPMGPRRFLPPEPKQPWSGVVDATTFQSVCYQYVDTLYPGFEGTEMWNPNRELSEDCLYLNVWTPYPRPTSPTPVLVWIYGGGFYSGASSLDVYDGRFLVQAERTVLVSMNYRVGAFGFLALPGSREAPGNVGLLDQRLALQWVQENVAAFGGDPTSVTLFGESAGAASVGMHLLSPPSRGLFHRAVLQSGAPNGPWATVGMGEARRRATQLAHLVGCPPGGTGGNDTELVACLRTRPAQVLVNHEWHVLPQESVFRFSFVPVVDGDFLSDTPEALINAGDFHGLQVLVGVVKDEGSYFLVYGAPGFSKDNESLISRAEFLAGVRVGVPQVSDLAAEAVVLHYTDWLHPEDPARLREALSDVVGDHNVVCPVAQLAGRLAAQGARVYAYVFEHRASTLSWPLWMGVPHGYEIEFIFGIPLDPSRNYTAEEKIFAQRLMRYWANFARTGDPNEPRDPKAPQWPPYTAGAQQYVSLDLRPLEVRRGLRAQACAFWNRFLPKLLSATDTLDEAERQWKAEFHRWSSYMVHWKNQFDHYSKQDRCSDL
Sequence of Cholinesterase (P06276 whole entry): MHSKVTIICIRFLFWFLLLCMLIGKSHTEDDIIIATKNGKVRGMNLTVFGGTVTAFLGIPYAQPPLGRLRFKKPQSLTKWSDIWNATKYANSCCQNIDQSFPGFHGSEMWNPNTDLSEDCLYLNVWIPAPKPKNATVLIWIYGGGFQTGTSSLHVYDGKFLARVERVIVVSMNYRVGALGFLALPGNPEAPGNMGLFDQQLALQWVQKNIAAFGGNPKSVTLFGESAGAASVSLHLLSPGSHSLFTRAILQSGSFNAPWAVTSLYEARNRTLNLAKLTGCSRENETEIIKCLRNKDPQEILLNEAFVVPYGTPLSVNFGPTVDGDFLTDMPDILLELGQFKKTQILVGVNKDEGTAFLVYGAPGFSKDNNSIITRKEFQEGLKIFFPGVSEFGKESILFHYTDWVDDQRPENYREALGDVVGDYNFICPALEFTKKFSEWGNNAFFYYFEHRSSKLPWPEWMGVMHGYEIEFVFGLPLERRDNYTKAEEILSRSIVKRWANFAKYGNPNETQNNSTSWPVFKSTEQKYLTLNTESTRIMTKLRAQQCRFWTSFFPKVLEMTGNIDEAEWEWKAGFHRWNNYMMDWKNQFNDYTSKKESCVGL
Sequence of Butyrylcholinesterase (Q9JKC1 whole entry): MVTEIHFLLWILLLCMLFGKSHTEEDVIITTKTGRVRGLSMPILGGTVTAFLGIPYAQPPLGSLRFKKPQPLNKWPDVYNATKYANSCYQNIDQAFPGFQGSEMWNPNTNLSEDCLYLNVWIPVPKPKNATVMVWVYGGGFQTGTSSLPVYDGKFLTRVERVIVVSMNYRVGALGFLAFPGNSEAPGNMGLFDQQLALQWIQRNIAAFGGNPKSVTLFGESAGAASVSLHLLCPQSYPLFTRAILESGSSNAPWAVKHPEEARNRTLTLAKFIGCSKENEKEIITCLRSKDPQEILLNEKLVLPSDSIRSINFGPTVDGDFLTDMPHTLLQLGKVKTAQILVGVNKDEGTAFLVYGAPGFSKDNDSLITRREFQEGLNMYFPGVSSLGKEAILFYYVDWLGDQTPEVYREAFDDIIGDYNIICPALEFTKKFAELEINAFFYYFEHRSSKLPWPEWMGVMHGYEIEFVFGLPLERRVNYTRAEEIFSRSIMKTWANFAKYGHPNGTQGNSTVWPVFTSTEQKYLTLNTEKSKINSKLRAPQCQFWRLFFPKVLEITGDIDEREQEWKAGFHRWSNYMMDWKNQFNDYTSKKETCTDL

Compound: CCN(C)C(=O)Oc1ccc(C2CC(=O)c3c(O)cc(OC(=O)N(C)CC)cc3O2)cc1 (stereo not given)
- Activity [1]: 63.8%
- IC50 [2]: 289 µM
- IC50 [3]: 30.6 µM
- Flu intensity [4]: 25.9
- inhibition at 5 µM [5]: 50.1%
- Activity [6]: Dde
- Activity [7]: 73.2%
- Activity [8]: 81.7%
- Flu intensity [9]: 15.5
- inhibition [10]: Active
- IC50 [11]: 20.3 µM
- Activity [12]: 532 pg/mL
- inhibition at 5 µM [13]: 41.7%
- Flu intensity [14]: 3.88
- Ratio IC50 [15]: 2.1
- Activity [16]: Non-Toxic
- Activity [17]: 54.4%
- inhibition [18]: 66.5%
- Activity [19]: Active
- Flu intensity [20]: 18.4
- inhibition at 10 µM [21]: 68.7%
- Flu intensity [22]: 6.48
- Activity [23]: 848 pg/mL
- Activity [24]: Non-Toxic
- Activity [25]: Dde
- Ratio IC50 [26]: 4.9
- Activity [27]: Active
- inhibition at 10 µM [28]: 55.6%
- Activity [29]: 68.7%
- IC50 [30]: 6.2 µM
